Measurements published in patent US20240270821A1, “GIP/GLP1/GCG TRI-RECEPTOR AGONISTS AND USES THEREOF” (priority 2023, published 2024).
Read-outs that look alike come from different tables or passages of the source. Starred links: 1 amine or outer side, 2 acyl side, 3 side chain; linkers in the order of their positions; H or OH if unused. Non-standard residues stand in square brackets, D forms with d. Groups on a side chain read outwards from the residue. *: point of attachment. C18 diacid = O=C(O)CCCCCCCCCCCCCCCCC(=O)*; γGlu = O=C(O)[C@H](CCC(=O)[*:2])N[*:1]; αMe4Pal = C[C@](N)(Cc1ccncc1)C(=O)O; αMeY = C[C@](N)(Cc1ccc(O)cc1)C(=O)O; 4Pal = N[C@@H](Cc1ccncc1)C(=O)O; αMeL = CC(C)C[C@](C)(N)C(=O)O; AEEA = NCCOCCOCC(=O)O; Aib = CC(C)(N)C(=O)O

What was measured:
Assay type in all cases: cell-based
hGcgR = hGcgR (Homo sapiens, UniProt P47871); assay: Functional cAMP activation in the presence of 0.1% casein (no HSA); conditions: in the presence of 0.1% casein (no HSA); geometric mean; read-out: Relative cAMP EC50, hGcgR;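 note: intracellular cAMP rise after 30 min at 37 °C, read by HTRF against a cAMP standard curve, scaled from buffer only (0%) to maximal control ligand response (100%)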
hGcgR, sequence (P47871 26-477): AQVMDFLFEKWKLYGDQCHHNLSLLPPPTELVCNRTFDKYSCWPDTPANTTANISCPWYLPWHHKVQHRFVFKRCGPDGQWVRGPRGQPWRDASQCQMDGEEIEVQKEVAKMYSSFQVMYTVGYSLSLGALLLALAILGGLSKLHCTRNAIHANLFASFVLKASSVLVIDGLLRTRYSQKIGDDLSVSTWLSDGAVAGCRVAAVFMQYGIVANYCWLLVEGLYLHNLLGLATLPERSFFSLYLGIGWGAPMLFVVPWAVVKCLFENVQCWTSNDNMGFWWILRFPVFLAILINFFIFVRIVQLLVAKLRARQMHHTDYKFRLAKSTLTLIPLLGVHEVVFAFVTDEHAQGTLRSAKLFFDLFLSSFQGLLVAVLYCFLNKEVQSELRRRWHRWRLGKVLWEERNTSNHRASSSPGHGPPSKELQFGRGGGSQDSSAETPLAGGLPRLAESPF

hGIPR [1] = target: T1, hGIPR (Homo sapiens, UniProt P48546); assay: Functional cAMP activity in the presence of 1% HSA; conditions: read-out: cAMP Rel EC50, hGIPR
T1 sequence (P48546 22-466): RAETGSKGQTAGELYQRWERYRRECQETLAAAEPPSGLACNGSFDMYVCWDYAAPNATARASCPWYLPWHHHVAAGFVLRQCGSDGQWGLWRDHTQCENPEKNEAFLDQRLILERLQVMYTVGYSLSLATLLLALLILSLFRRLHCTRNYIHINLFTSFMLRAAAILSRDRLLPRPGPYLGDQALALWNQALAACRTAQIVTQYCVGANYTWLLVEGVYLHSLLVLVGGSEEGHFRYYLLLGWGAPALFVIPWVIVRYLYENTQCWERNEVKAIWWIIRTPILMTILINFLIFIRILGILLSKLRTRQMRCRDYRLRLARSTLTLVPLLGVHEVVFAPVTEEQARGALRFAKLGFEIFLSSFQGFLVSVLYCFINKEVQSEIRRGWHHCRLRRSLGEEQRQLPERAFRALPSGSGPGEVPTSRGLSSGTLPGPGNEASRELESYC

hGLP-1R [2] = target: T2, hGLP-1R (Homo sapiens, UniProt P43220); assay: Functional cAMP activity in the presence of 1% HSA; conditions: read-out: cAMP Rel EC50, hGLP-1R
T2 sequence (P43220 24-463): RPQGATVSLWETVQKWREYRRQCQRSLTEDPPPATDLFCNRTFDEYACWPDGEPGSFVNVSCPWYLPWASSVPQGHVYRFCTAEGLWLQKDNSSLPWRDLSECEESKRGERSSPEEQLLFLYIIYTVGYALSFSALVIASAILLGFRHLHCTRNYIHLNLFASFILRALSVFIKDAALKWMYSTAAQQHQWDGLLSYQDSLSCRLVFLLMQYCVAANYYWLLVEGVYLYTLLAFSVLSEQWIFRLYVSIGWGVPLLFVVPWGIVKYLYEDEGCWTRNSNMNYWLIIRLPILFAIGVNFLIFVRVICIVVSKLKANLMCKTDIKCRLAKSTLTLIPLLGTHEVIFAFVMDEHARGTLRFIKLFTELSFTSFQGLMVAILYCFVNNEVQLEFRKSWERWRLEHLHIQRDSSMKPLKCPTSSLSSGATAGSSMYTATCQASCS

human GcgR = human GcgR (Homo sapiens, UniProt P47871); assay: Functional cAMP activity in the presence of 1% HSA; conditions: read-out: cAMP Rel EC50, hGcgR
human GcgR, sequence (P47871 26-477): as the sequence (P47871 26-477) above

hGIPR [3] = target: T1, hGIPR; assay: Functional cAMP activation in the presence of 0.1% casein (no HSA); conditions: in the presence of 0.1% casein (no HSA); geometric mean; read-out: Relative cAMP EC50, hGIPR;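 for Relative cAMP EC50, hGIPR: intracellular cAMP rise after 30 min at 37 °C read by HTRF against a standard curve, scaled between buffer alone (0%) and top control ligand concentration (100%), four-parameter fit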;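 for Relative cAMP EC50, hGLP-1R: intracellular cAMP rise after 30 min at 37 °C read by HTRF, normalized between buffer only (0%) and maximal control ligand (100%), four-parameter variable-slope fit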
hGLP-1R [4] = target: T2, hGLP-1R; assay: as above; conditions: in the presence of 0.1% casein (no HSA); geometric mean; read-out: Relative cAMP EC50, hGLP-1R
[5] = HEK-293 clonal cell line, in the presence of 1% HSA, geometric mean of relative EC50

Substance | EC50 (hGcgR) [nM] | EC50 (hGIPR [1]) [nM] | EC50 (hGLP-1R [2]) [nM] | EC50 (human GcgR) [nM] | EC50 (hGIPR [3]) [nM] | EC50 (hGLP-1R [4]) [nM] | EC50 (hGIPR [1]; [5]) [nM] | EC50 (hGLP-1R [2]; [5]) [nM] | EC50 (human GcgR; [5]) [nM]
H-Y[Aib]QGTFTSD[4Pal]SQ[αMeL]LDKK([dE-γGlu-C18 diacid])AQ[αMe4Pal]AFIEYLIAGGPSSGAPPPSGE-NH2 [Example 1085] | 11.6 | 9.84 | 188 | 1370 | 0.0827 | 1.28 |  |  | 
H-Y[Aib]QGTFTSD[4Pal]SQ[αMeL]LDKK([dE-γGlu-C18 diacid])AQ[αMe4Pal]AFIEYLIE[Aib]GPSSGAPPPSGS-NH2 [Example 920] | 4.61 | 9.05 | 322 | 1090 | 0.0905 | 2.28 |  |  | 
H-Y[Aib]QGTFTSD[4Pal]SQ[αMeL]LDKK([γGlu-AEEA-γGlu-C18 diacid])AQ[αMe4Pal]AFIEYLIE[Aib]GPSSGAPPPSGS-NH2 [Example 861] | 8.59 | 18.3 | 322 | 1350 | 0.195 | 2.62 |  |  | 
H-Y[Aib]QGTFTSD[4Pal]SQ[αMeL]LDKK([γGlu-γGlu-C18 diacid])AQ[Aib]AFIE[αMeY]LLEGGPSSGAPPPSGS-NH2 [Example 938] | 13.3 | 21.5 | 263 | 2830 | 0.13 | 1.84 |  |  | 
H-Y[Aib]QGTFTSD[4Pal]SQ[αMeL]LDKK([γGlu-γGlu-C18 diacid])AQ[Aib]AFIE[αMeY]LLEGGPSSGAPPPSGSEE-NH2 [Example 945] | 18 | 42.5 | 555 | 2420 | 0.246 | 3.9 |  |  | 
H-Y[Aib]QGTFTSD[4Pal]SQ[αMeL]LDKK([γGlu-γGlu-C18 diacid])AQ[αMe4Pal]AFIEWLIEGGPSSGAPPPSGS-NH2 [Example 872] | 4.18 | 30.1 | 287 | 1890 | 0.205 | 1.01 |  |  | 
H-Y[Aib]QGTFTSD[4Pal]SQ[αMeL]LDKK([γGlu-γGlu-C18 diacid])AQ[αMe4Pal]AFIEYLIAGGESSGAPPPSGSEE-NH2 [Example 963] | 5.81 | 25.1 | 215 | 900 | 0.244 | 1.77 |  |  | 
H-Y[Aib]QGTFTSD[4Pal]SQ[αMeL]LDKK([γGlu-γGlu-C18 diacid])AQ[αMe4Pal]AFIEYLIAGGPSSGAPPPEGS-NH2 [Example 969] | 5.48 | 12.6 | 113 | 660 | 0.142 | 1.21 |  |  | 
H-Y[Aib]QGTFTSD[4Pal]SQ[αMeL]LDKK([γGlu-γGlu-C18 diacid])AQ[αMe4Pal]AFIEYLIAGGPSSGAPPPSGSEE-NH2 [Example 960] | 5.5 | 14.1 | 161 | 813 | 0.124 | 1.51 |  |  | 
H-Y[Aib]QGTFTSD[4Pal]SQ[αMeL]LDKK([γGlu-γGlu-C18 diacid])AQ[αMe4Pal]AFIEYLIAGGPSSGEPPPSGS-NH2 [Example 968] | 4.72 | 11.7 | 103 | 625 | 0.0928 | 1.04 |  |  | 
H-Y[Aib]QGTFTSD[4Pal]SQ[αMeL]LDKK([γGlu-γGlu-C18 diacid])AQ[αMe4Pal]AFIEYLIE[Aib]GPSSGAPPPEGE-NH2 [Example 884] | 3.82 | 23.5 | 298 | 613 | 0.155 | 4.17 |  |  | 
H-Y[Aib]QGTFTSD[4Pal]SQ[αMeL]LDKK([γGlu-γGlu-C18 diacid])AQ[αMe4Pal]AFIEYLIE[Aib]GPSSGAPPPSGE-NH2 [Example 882] | 2.73 | 26.6 | 361 | 559 | 0.129 | 2.33 |  |  | 
H-Y[Aib]QGTFTSD[4Pal]SQ[αMeL]LDKK([γGlu-γGlu-C18 diacid])AQ[αMe4Pal]AFIEYLIE[Aib]GPSSGAPPPSGSE-NH2 [Example 890] | 4.73 | 14.2 | 290 | 559 | 0.113 | 3.19 |  |  | 
H-Y[Aib]QGTFTSD[4Pal]SQ[αMeL]LDKK([γGlu-γGlu-C18 diacid])AQ[αMe4Pal]AFIEYLIE[Aib]GPSSGAPPPSGSEE-NH2 [Example 899] | 4.4 | 15.6 | 592 | 814 | 0.133 | 4.11 |  |  | 
H-Y[Aib]QGTFTSD[4Pal]SQ[αMeL]LDKK([γGlu-γGlu-C18 diacid])AQ[αMe4Pal]AFIEYLIE[Aib]GPSSGAPPPSGSEEE-NH2 [Example 900] | 4.74 | 17 | 666 | 885 | 0.173 | 3.99 |  |  | 
H-Y[Aib]QGTFTSD[4Pal]SQ[αMeL]LDKK([γGlu-γGlu-C18 diacid])AQ[αMe4Pal]AFIEYLIE[Aib]GPSSGAPPPSGSGE-NH2 [Example 891] | 3.14 | 16 | 330 | 581 | 0.155 | 3.25 |  |  | 
H-Y[Aib]QGTFTSD[4Pal]SQ[αMeL]LDKK([γGlu-γGlu-C18 diacid])AQ[αMe4Pal]AFIEYLIE[Aib]GPSSGAPPPSGTE-NH2 [Example 1126] | 3.92 | 13.5 | 208 | 452 | 0.174 | 4.56 |  |  | 
H-Y[Aib]QGTFTSD[4Pal]SQ[αMeL]LDKK([γGlu-γGlu-C18 diacid])AQ[αMe4Pal]AFIEYLIE[Aib]GPSSGAPPPSGTGE-NH2 [Example 1127] | 5.95 |  |  |  | 0.167 | 6.16 | 7.72 | 234 | 425
H-Y[Aib]QGTFTSD[4Pal]SQ[αMeL]LDKK([γGlu-γGlu-C18 diacid])AQ[αMe4Pal]AFIEYLLAGGPSSGAPPPSGSEE-NH2 [Example 1036] | 2.05 | 13 | 1080 | 353 | 0.114 | 6.87 |  |  | 
H-Y[Aib]QGTFTSD[4Pal]SQ[αMeL]LDKK([γGlu-γGlu-C18 diacid])AQ[αMe4Pal]AFIE[αMe4Pal]LIEGGPSSGAPPPSGS-NH2 [Example 951] | 5.73 | 18.2 | 382 | 657 | 0.156 | 2.61 |  |  | 
H-Y[Aib]QGTFTSD[4Pal]SQ[αMeL]LDKK([γGlu-γGlu-C18 diacid])AQ[αMe4Pal]AFIE[αMe4Pal]LIEGGPSSGAPPPSGSEE-NH2 [Example 957] | 4.18 | 25 | 747 | 947 | 0.213 | 5.01 |  |  | 
H-Y[Aib]QGTFTSD[4Pal]SQ[αMeL]LDKK([γGlu-γGlu-C18 diacid])AQ[αMe4Pal]AFIE[αMe4Pal]LIE[Aib]GPSSGAPPPSGE-NH2 [Example 1120] | 5.17 | 9.21 | 171 | 291 | 0.096 | 4.5 |  |  | 
H-Y[Aib]QGTFTSD[4Pal]SQ[αMeL]LDKK([γGlu-γGlu-C18 diacid])AQ[αMe4Pal]AFIE[αMe4Pal]LIE[Aib]GPSSGAPPPSGTGE-NH2 [Example 1119] | 7.61 | 3.95 | 152 | 237 | 0.0939 | 3.57 |  |  | 
H-Y[Aib]QGTFTSD[4Pal]SQ[αMeL]LDKK([γGlu-γGlu-C18 diacid])AQ[αMe4Pal]AFIE[αMe4Pal]LIE[Aib]GPSSGEPPPSGE-NH2 [Example 1123] | 5.53 | 3.89 | 191 | 441 | 0.101 | 4.47 |  |  | 
H-Y[Aib]QGTFTSD[4Pal]SQ[αMeL]LDKK([γGlu-γGlu-C18 diacid])AQ[αMe4Pal]AFIE[αMe4Pal]LIE[Aib]GPSSGEPPPSGEEE-NH2 [Example 1124] | 6.97 | 12 | 304 | 400 | 0.187 | 10.1 |  |  | 
H-Y[Aib]QGTFTSD[4Pal]SQ[αMeL]LDKK([γGlu-γGlu-C18 diacid])AQ[αMe4Pal]AFIE[αMe4Pal]LIE[Aib]GPSSGEPPPSGSEE-NH2 [Example 1125] | 5.83 | 3.95 | 243 | 264 | 0.173 | 8.26 |  |  | 
